Measurements from US20090246134A1, “COMPOSITIONS AND METHODS FOR MODULATING GATED ION CHANNELS” (PainCeptor Pharma Corporation, priority 2007, published 2009).

Experiments:
[1] = system: formalin-induced pain in Sprague-Dawley rats; assay: Formalin model of acute tonic pain; assay type: in vivo, rat; settings: rat, in vivo
Method: Male Sprague-Dawley rats are housed together in groups of three animals under standard conditions with unrestricted access to food and water. All experiments are conducted according to the ethical guidelines for investigations of experimental pain in conscious animals (Zimmerman, 1983)
Assessment of formalin-induced flinching behavior in normal, uninjured rats (body weight 150-180 g) was made with the use of an Automated Nociception Analyser (University of California, San Diego, USA). Briefly, this involved placing a small C-shaped metal band (10 mm wide×27 mm long) on the hindpaw of the rat to be tested. The rats (four rats were included in each testing session) were then placed in a cylindrical plexiglass observation chamber (diameter 30.5 cm and height 15 cm) for 20 min for adaptation purposes prior to being administered drug or vehicle according to the experimental paradigm being followed. After adaptation, individual rats were then gently restrained and formalin (5% in saline, 50 μl, s.c.) was injected into the plantar surface of the hindpaw using a 27 G needle. Rats were then returned to their separate observation chambers, each of which were in turn situated upon an enclosed detection device consisting of two electromagnetic coils designed to produce an electromagnetic field in which movement of the metal band could be detected. The analogue signal was then digitised and a software algorithm (LabView) applied to enable discrimination of flinching behaviour from other paw movements. A sampling interval of 1 min was used and on the basis of the resulting response patterns 5 phases of nociceptive behaviour were identified and scored: first phase (P1; 0-5 min), interphase (Int; 6-15 min), second phase (P2; […]), phase 2A (P2A; 16-40 min) and phase 2B (P2B; 41-60 min).
Nociceptive behavior was also determined manually every 5 min by measuring the amount of time spent in each of four behavioral categories: 0, treatment of the injected hindpaw is indistinguishable from that of the contralateral paw; 1, the injected paw has little or no weight placed on it; 2, the injected paw is elevated and is not in contact with any surface; 3, the injected paw is licked, bitten, or shaken. A weighted nociceptive score, ranging from 0 to 3 was calculated by multiplying the time spent in each category by the category weight, summing these products, and dividing by the total time for each 5 min block of time. (Coderre et al., Pain 1993; 54: 43). On the basis of the resulting response patterns, 2 phases of nociceptive behavior were identified and scored: first phase (P1; 0-5 min), interphase (Int; 6-15 min), second phase (P2; […]), phase 2A (P2A; 16-40 min) and phase 2B (P2B; 41-60 min).
Statistical analysis was performed using Prism™ 4.01 software package (GraphPad, San Diego, Calif., USA). The difference in response levels between treatment groups and control vehicle group was analyzed using an ANOVA followed by Bonferroni's method for post-hoc pair-wise comparisons. A p value<0.05 was considered to be significant
The effect of Compound A on pain induced by intraplantar formalin injection was investigated. Compound A was administered i.p. 30 min. before the formalin. Compound A was able to reduce the total pain score behavior (flinching, licking, biting) in phase 1 and 2 of the formalin test.

[2] = system: native sensory-neuron gated ion channels; assay: Patch-clamp electrophysiology of sensory neurons in primary culture; assay type: cell-based, rat; settings: n=3
Excerpt: This example describes another in vitro assessment of the inhibitory activity of the compounds of the present invention utilizing patch-clamp electrophysiology of sensory neurons in primary culture.
Sensory neurons can be isolated and cultured in vitro from different animal species. The most widely used protocols use sensory neurons isolated from neonatal (Eckert, et al. (1997) J Neurosci Methods 77:183-190) and embryonic (Vasko, et al. (1994) J Neurosci 14:4987-4997) rat. […] Electrophysiology is performed similarly as described above in Example 2. In the voltage-clamp mode, trans-membrane currents are recorded. Compounds A and H at 1 μM inhibit the pH 6.5-induced inward current. In the current-clamp mode, change in the trans-membrane potential are recorded. Under acidic conditions (e.g., pH 6.5) the membrane depolarizes, leading to the firing of action potentials. Compounds A and H at 1 μM inhibit the acid-induced membrane depolarization and reduce the ensuing rate of action potential firing.

[3] = system: CFA-induced change in weight bearing in Sprague-Dawley rats; assay: CFA model of chronic inflammatory pain, hindpaw weight bearing; assay type: in vivo, rat; settings: 24 h after CFA; 60 min after drug; Compound A 5, 10, 20 mg/kg i.p.; Compound H 10, 30, 60 mg/kg; morphine 3, 6, 10 mg/kg; n=7-8
Method: Rats (body weight 260-300 g) were given a s.c. injection of CFA (50% in saline, 100 μl, Sigma) into the plantar surface of the hindpaw under brief halothane anaesthesia. After 24 h, they were then tested for hindpaw weight bearing responses, as assessed using an Incapacitance Tester (Linton Instrumentation, UK), (Zhu et al., 2005). The instrument incorporates a dual channel scale that separately measures the weight of the animal distributed to each hindpaw. While normal rats distribute their body weight equally between the two hindpaws (50-50), the discrepancy of weight distribution between an injured and non-injured paw is a natural reflection of the discomfort level in the injured paw (nocifensive behavior). The rats were placed in the plastic chamber designed so that each hindpaw rested on a separate transducer pad. […] For each rat, three readings from each paw were taken and then averaged. Side-to-side weight bearing difference was calculated as the average of the absolute value of the difference between two hindpaws from three trials (right paw reading-left paw reading).
Hindpaw weight bearing responses were measured in male Sprague-Dawley rats for 2-3 days prior to being given a hindpaw injection of CFA. Twenty-four hours later baseline responses were measured and rats were then administered Compound A (5, 10 and 20 mg/kg, i.p.), Compound H (10, 30 and 60 mg/kg) and morphine (3, 6 and 10 mg/kg). Weight bearing responses were then measured at 30, 60 and 120 min after drug or vehicle injection (data shown at 60 min.). […] All groups n=7-8.

For CCN1CCc2c(-c3ccccc3)cc3c(c2C1)NC(=O)/C3=N/O [Compound H, 5-phenyl-6,7,8,9-tetrahydro-3-(hydroxyimino)-8-ethyl-1H-pyrrolo[3,2-h]isoquinoline-2(3H)-one], the “acute tonic pain induced by formalin injection in the paw” value [1] was “block”, the acid-induced membrane depolarization ([2]; current-clamp mode, 1 μM) was “inhibit” and the “rate of action potential firing” value ([2]; current-clamp mode, acidic conditions, 1 μM) was “reduce”. The “activity of native sensory-neuron gated ion channels” value [2] was “effectively modulate”, the “pH 6.5-induced inward current” value ([2]; voltage-clamp mode, 1 μM) was “inhibit” and the “CFA-induced change in weight bearing compared with vehicle” value [3] was “marked dose-dependent attenuation”.
